{"source": "ChEMBL document CHEMBL1130607", "about": "“Reversal of multidrug resistance (MDR) by aspidofractinine-type indole alkaloids” (Bioorg Med Chem Lett, 1998)"}
{"tested_on": "Epidermoid carcinoma cell line", "assay": "Compound was evaluated for cytotoxicity against vincristine- resistant (KB/VJ300) human oral epidermoid carcinoma cell line", "format": "functional, cell-based", "details": "not given", "units": {"IC50": "µg/mL"}}
{"smiles": "COC(=O)N1c2c(OC)cccc2[C@@]23CCN4CC=C[C@]5(CC[C@]12[C@](O)(C(=O)OC)[C@@H]5O)[C@H]43", "note": "[KOPSINGINE]", "IC50": "> 25"}
{"smiles": "COC(=O)[C@@H]1CC23CCCN4CC[C@@]5(c6cccc(OC)c6N(C(=O)OC)C15CC2)[C@@H]43", "note": "(stereo partly specified)", "IC50": 21}
{"smiles": "COC(=O)N1c2c(OC)cccc2[C@@]23CCN4CCCC5(CCC12[C@](O)(C(=O)OC)C5)[C@H]43", "note": "(stereo partly specified) [KOPSILONGINE]", "IC50": 15.4}
{"smiles": "COC(=O)[C@@H]1CC23CCCN4CC[C@@]5(c6ccccc6NC15CC2)[C@@H]43", "note": "(stereo partly specified) [KOPSININE]", "IC50": 25}
{"tested_on": "Epidermoid carcinoma cell line", "assay": "Compound was evaluated for cytotoxicity against vincristine-resistant (KB/VJ300) human oral epidermoid carcinoma cell line", "format": "functional, cell-based", "details": "not given", "units": {"IC50": "µg/mL"}}
{"smiles": "COC(=O)N1c2c(ccc(OC)c2OC)[C@@]23CCN4CCCC5(CCC12[C@](O)(C(=O)OC)C5)[C@H]43", "note": "(stereo partly specified)", "IC50": 1.6}
{"smiles": "COC(=O)C1=CC23CCCN4CC[C@@]5(c6ccc7c(c6N(C(=O)OC)C15CC2)OCO7)[C@@H]43", "note": "(stereo partly specified)", "IC50": 4.4}
{"smiles": "COC(=O)N1c2c(ccc3c2OCO3)[C@@]23CCN4CCCC5(CCC12[C@](O)(C(=O)OC)C5)[C@]43C#N", "note": "(stereo partly specified) [LAHADININE A]", "IC50": 2.5}
{"smiles": "COC(=O)N1c2ccccc2[C@@]23CCN4CCCC5(CCC12[C@](O)(C(=O)OC)C5)[C@H]43", "note": "(stereo partly specified) [KOPSIFLORINE]", "IC50": 2.3}
{"smiles": "COC(=O)N1c2c(ccc3c2OCO3)[C@@]23CCN4CCCC5(CCC12[C@](O)(C(=O)OC)C5)[C@H]43", "note": "(stereo partly specified) [KOPSAMINE]", "IC50": 5.6}
{"smiles": "COC(=O)[C@@H]1CC23CCCN4CC[C@@]5(c6ccccc6N(C(=O)OC)C15CC2)[C@@H]43", "note": "(stereo partly specified) [PLEIOCARPINE]", "IC50": 3.1}
{"tested_on": "Epidermoid carcinoma cell line", "assay": "Compound was evaluated for cytotoxicity against vincristine- resistant (KB/VJ300) human oral epidermoid carcinoma cell line; poor activity or moderate activity", "format": "functional, cell-based", "details": "not given"}
{"smiles": "COC(=O)N1c2c(OC)cccc2[C@@]23CCN4CC[C@H](O)[C@]5(CC[C@]12[C@](O)(C(=O)OC)[C@@H]5O)[C@H]43", "note": "[KOPSINGANOL]", "IC50": "poor activity or moderate activity"}
{"smiles": "COC(=O)N1c2c(OC)cccc2[C@@]23[C@H]4C(=O)[C@@]5(O)[C@H]6O[C@H]4N4CC[C@H](O)[C@]6(CC[C@]125)[C@H]43", "IC50": "poor activity or moderate activity"}
{"smiles": "COC(=O)N1c2c(ccc3c2OCO3)[C@]23[C@H]4OC(=O)[C@@]5(O)C[C@@]6(CCCN(C4=O)[C@@]62O)CC[C@]135", "note": "[paucidactine A]", "IC50": "poor activity or moderate activity"}
{"smiles": "CCO[C@H]1C[C@@H]2O[C@@H]3[C@]14CC[C@@]1(N(C(=O)OC)c5c(OC)cccc5[C@@]15CCN2[C@@H]45)[C@]3(O)C(=O)OC", "note": "[KOPSIDINE B]", "IC50": "poor activity or moderate activity"}
{"smiles": "COC(=O)N1c2ccccc2[C@@]23[C@@H]4CN5CCC[C@]6(CC[C@]12[C@@H](O)[C@@H]6C4=O)[C@H]53", "note": "[FRUTICOSAMINE]", "IC50": "poor activity or moderate activity"}
{"smiles": "COC(=O)N1c2c(OC)cccc2[C@@]23CCN4C[C@H]5O[C@H]5[C@]5(CC[C@]12[C@](O)(C(=O)OC)[C@@H]5O)[C@H]43", "IC50": "poor activity or moderate activity"}
{"smiles": "COC(=O)N1c2c(ccc3c2OCO3)[C@@]23CC(=O)N(CCCC4=CC[C@]12[C@](O)(C(=O)OC)C4)C3=O", "note": "[PAUCIFLORINE A]", "IC50": "poor activity or moderate activity"}
{"smiles": "COC(=O)N1c2c(ccc3c2OCO3)[C@]23CC(=O)C[C@@]4(CCCN(C=O)[C@@H]42)CCC13C(=O)OC", "note": "(stereo partly specified) [DANUPHYLLINE]", "IC50": "poor activity or moderate activity"}
{"tested_on": "Epidermoid carcinoma cell line", "assay": "(§1) Compound was evaluated for cytotoxicity against vincristine- resistant (KB/VJ300) human oral epidermoid carcinoma cell line; P = poor activity or moderate activity", "format": "functional, cell-based", "details": "Homo sapiens, Epidermoid carcinoma cell line; read-out: IC50", "units": {"IC50": "µg/mL"}}
{"smiles": "COC(=O)N1c2c(ccc(O)c2OC)[C@@]23CCN4CCCC5(CCC12[C@](O)(C(=O)OC)C5)[C@H]43", "note": "(stereo partly specified)", "IC50": "> 25"}
{"tested_on": "Epidermoid carcinoma cell line", "assay": "as §1", "format": "functional, cell-based", "details": "epidermoid carcinoma cell line"}
{"smiles": "COC(=O)N1c2c(OC)cccc2[C@@]23CCN4CCC[C@]5(CC[C@]12[C@](O)(C(=O)OC)[C@@H]5O)[C@H]43", "note": "[DIHYDROKOPSINGINE]", "IC50": "Poor or moderate activity"}
{"tested_on": "Epidermoid carcinoma cell line", "assay": "Compound was evaluated for cytotoxicity against vincristine- sensitive (KB/S) human oral epidermoid carcinoma cell line at 7 ug/mL", "format": "functional", "details": "not given", "units": {"Cell growth": "%"}}
{"smiles": "COC(=O)C1=CC23CCCN4CC[C@@]5(c6cccc(OC)c6N(C(=O)OC)C15CC2)[C@@H]43", "note": "(stereo partly specified)", "Cell growth": "<50"}
